Values quoted from earlier work, collected in patent publication US20230201393A1, “DI[…] AND METHODS USING POLYMER COMPOSITIONS THAT FORM CHLORINE DIOXIDE GAS” (priority 2020, published 2023).

Assays:
poliovirus 1 = settings: 4 ppm ClO2, 5 minutes of exposure

In the case of [O][Cl+][O-] [Chlorine dioxide], the survival rate (Influenza A; 0.03 ppm ClO2 administered after, versus 30% when untreated) is given as 100%, the log kill (Influenza A; 0.03 ppm of ClO2 administered at the same time as the virus) is given as 4 log and the miscibility in water is given as “up to 60 g/L”. The inactivation (poliovirus 1) was at least 99.9%.
